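Five compound concentrations were applied to cells in 96-well plates for 48 hours; endpoints were derived by simple linear interpolation of the resulting dose-response curve. TGI: total growth inhibition.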
Key:
Assay in all cases: NCI-60 cell line screen, 48 h
ACHN renal = tested on: ACHN renal
EKVX NSCLC = tested on: EKVX NSCLC
HS 578T breast = tested on: HS 578T breast
IGROV1 ovarian = tested on: IGROV1 ovarian
K-562 leukemia = tested on: K-562 leukemia
M14 melanoma = tested on: M14 melanoma
MDA-N = tested on: MDA-N
MOLT-4 leukemia = tested on: MOLT-4 leukemia
OVCAR-5 ovarian = tested on: OVCAR-5 ovarian
OVCAR-8 ovarian = tested on: OVCAR-8 ovarian
SK-MEL-28 melanoma = tested on: SK-MEL-28 melanoma
SK-OV-3 ovarian = tested on: SK-OV-3 ovarian
SN12C renal = tested on: SN12C renal
SR leukemia = tested on: SR leukemia
T-47D breast = tested on: T-47D breast
UO-31 renal = tested on: UO-31 renal
A498 renal = tested on: A498 renal
CAKI-1 renal = tested on: CAKI-1 renal
LOX IMVI melanoma = tested on: LOX IMVI melanoma
NCI-H226 lung = tested on: NCI-H226 lung

| Structure (SMILES) | TGI (ACHN renal) [µM] | TGI (EKVX NSCLC) [µM] | TGI (HS 578T breast) [µM] | TGI (IGROV1 ovarian) [µM] | TGI (K-562 leukemia) [µM] | TGI (M14 melanoma) [µM] | TGI (MDA-N) [µM] | TGI (MOLT-4 leukemia) [µM] | TGI (OVCAR-5 ovarian) [µM] | TGI (OVCAR-8 ovarian) [µM] | TGI (SK-MEL-28 melanoma) [µM] | TGI (SK-OV-3 ovarian) [µM] | TGI (SN12C renal) [µM] | TGI (SR leukemia) [µM] | TGI (T-47D breast) [µM] | TGI (UO-31 renal) [µM] | TGI (A498 renal) [µM] | TGI (CAKI-1 renal) [µM] | TGI (LOX IMVI melanoma) [µM] | TGI (NCI-H226 lung) [µM] |
| --- | --- | --- | --- | --- | --- | --- | --- | --- | --- | --- | --- | --- | --- | --- | --- | --- | --- | --- | --- | --- |
| CNC1c2ccccc2C(=O)c2cc3c(cc21)OCCOCCOCCOCCO3 (stereo not drawn) | > 100 | > 100 | > 100 | > 100 | > 100 | > 100 | > 100 | 92.2 | > 100 | > 100 | > 100 | > 100 | > 100 | 96.2 | > 100 | > 100 | – | – | – | – |
| CC(O)CN1c2ccccc2Sc2ccccc21 (stereo not drawn) | > 100 | > 100 | > 100 | > 100 | > 100 | > 100 | > 100 | > 100 | > 100 | > 100 | > 100 | > 100 | > 100 | – | > 100 | > 100 | > 100 | > 100 | > 100 | > 100 |
| CCOC(=O)C1(C#N)C(=O)c2cc[n+](CC[n+]3ccc4c(c3)C(=O)C(C#N)(C(=O)OCC)C4=O)cc2C1=O (stereo not drawn) | > 100 | > 100 | > 100 | > 100 | > 100 | > 100 | > 100 | > 100 | > 100 | > 100 | > 100 | > 100 | > 100 | – | > 100 | > 100 | > 100 | > 100 | > 100 | > 100 |
| CC(=O)Nc1cccc(N2C(=O)/C(=C\c3cccc(Oc4ccccc4)c3)S(=O)(=O)C2c2ccccc2)c1 (stereo not drawn) | > 100 | > 100 | – | > 100 | 79.2 | > 100 | > 100 | 62.6 | > 100 | > 100 | > 100 | > 100 | > 100 | 58.3 | > 100 | > 100 | > 100 | > 100 | > 100 | > 100 |
| CC12CCC(=O)N1c1cncnc1N2 (stereo not drawn) | > 10 | > 10 | > 10 | > 10 | > 10 | > 10 | > 10 | > 10 | > 10 | > 10 | – | > 10 | > 10 | > 10 | – | > 10 | – | – | > 10 | > 10 |
| CC(C)(C)C1CCC2c3c([nH]c4ccccc34)C3C(=O)N(c4ccccc4Cl)C(=O)C3C2C1 (stereo not drawn) | 70.2 | 31.5 | 35.3 | > 100 | > 100 | 45.7 | 29.3 | > 100 | – | 50 | – | > 100 | 22.7 | > 100 | – | 78.1 | 52.6 | 37.1 | 28.5 | – |
| COc1ccc2c(=O)cc(-c3ccc(OC)c(OC)c3OC)oc2c1 | > 100 | > 100 | > 100 | > 100 | > 100 | > 100 | > 100 | > 100 | > 100 | > 100 | > 100 | > 100 | > 100 | > 100 | > 100 | > 100 | – | > 100 | > 100 | > 100 |
| CC(=O)NC(Cc1ccccc1)NC(=O)O (stereo not drawn) | > 100 | > 100 | – | > 100 | > 100 | > 100 | > 100 | > 100 | > 100 | > 100 | > 100 | > 100 | > 100 | > 100 | > 100 | > 100 | > 100 | > 100 | > 100 | > 100 |
| COc1ccc(NC(C)=O)cc1N1C(=O)/C(=C\c2ccccc2)SC1c1cc(OC)c(OC)c(OC)c1 (stereo not drawn) | > 100 | > 100 | – | > 100 | > 100 | > 100 | > 100 | > 100 | – | 71.4 | > 100 | > 100 | > 100 | > 100 | > 100 | > 100 | > 100 | > 100 | 34.5 | 48.3 |
| COc1ccc2nc3c([N+](=O)[O-])ccc4c3c(c2c1)NCCN4CCN(C)C | 1.66 | 2.78 | 3.91 | 3.15 | > 10 | 1.71 | 1.99 | 7.67 | 9.89 | > 10 | 3.08 | 0.973 | 3.28 | 7.24 | – | 3.42 | 3.12 | 7.35 | 1.45 | 7.13 |
| N#CC1=C2SCCN2C(=O)C(C#N)C12CCCCC2 (stereo not drawn) | > 100 | > 100 | – | > 100 | > 100 | > 100 | > 100 | > 100 | > 100 | > 100 | > 100 | > 100 | > 100 | > 100 | > 100 | > 100 | > 100 | > 100 | > 100 | > 100 |
| Oc1[nH]c(=S)[nH]c1/C=C1/C(c2ccccc2)=Nc2ccccc21 | 78 | 36.4 | 42.4 | 30.3 | 33.7 | – | 28.4 | 32.1 | 36.1 | 28.8 | 30.3 | – | 38.7 | 27.9 | – | 21.4 | 25.3 | 37.5 | 24.3 | 35.8 |
| Cc1c2c(nc3ccccc13)C(=O)c1cccnc1C2=O | > 100 | 88 | > 100 | > 100 | > 100 | 48.8 | 3.16 | 64.7 | > 100 | 77.9 | 94.7 | > 100 | > 100 | 65.6 | 87.8 | > 100 | – | – | 35.2 | > 100 |
| CC(C)(Oc1ccc(Cl)cc1)C(=O)N(C(=O)N1CCCCC1)c1ccccc1 | 28.1 | 21.9 | 58.5 | 22.3 | > 100 | 52.1 | > 100 | 84.8 | 36.7 | 31.4 | 44.6 | 40.4 | 47 | – | 9.68 | 42 | 32.8 | 29.9 | 26.6 | 51 |
| Cc1cc(=O)oc2c(CNC(CO)C(=O)O)c(O)ccc12 (stereo not drawn) | > 100 | > 100 | > 100 | > 100 | > 100 | > 100 | > 100 | > 100 | > 100 | > 100 | > 100 | > 100 | > 100 | > 100 | > 100 | > 100 | – | > 100 | > 100 | > 100 |
| CCCCN1C(=O)c2c(Br)sc(Br)c2C1=O | > 100 | > 100 | – | > 100 | > 100 | > 100 | > 100 | 70.6 | > 100 | > 100 | > 100 | > 100 | 95.8 | 85.6 | > 100 | > 100 | > 100 | > 100 | > 100 | > 100 |
| CCC1(CC)C(=O)N(C(=O)c2ccccc2)N(C(=O)c2ccc(Cl)cc2)C1=O | > 75 | > 75 | > 75 | > 75 | > 75 | > 75 | > 75 | 47.7 | > 75 | > 75 | > 75 | > 75 | > 75 | 53.6 | > 75 | > 75 | – | > 75 | > 75 | > 75 |
| CCOC(=O)CC[C@H](NC(=O)N[C@H](C)c1ccccc1)C(=O)OCC | > 100 | > 100 | – | > 100 | > 100 | 28.2 | 38.2 | 52.5 | > 100 | > 100 | 43.8 | > 100 | > 100 | > 100 | – | > 100 | > 100 | > 100 | > 100 | > 100 |
| CC(C)(C)C1CCC2c3c([nH]c4ccccc34)C3C(=O)N(c4ccccc4[N+](=O)[O-])C(=O)C3C2C1 (stereo not drawn) | 61.3 | 44.7 | 49.5 | 76 | 27.8 | 33.8 | 43.9 | – | 50.5 | > 100 | – | > 100 | 64.3 | > 100 | – | > 100 | 36.5 | 32.4 | 31.4 | 57.2 |
| O=[N+]([O-])c1cccc(-c2ncc3c(n2)-c2ccccc2C3)c1 | > 100 | > 100 | > 100 | > 100 | > 100 | > 100 | > 100 | > 100 | > 100 | > 100 | > 100 | > 100 | > 100 | > 100 | > 100 | > 100 | – | > 100 | – | > 100 |
